Results reported in patent US20100298138A1, “Aminoazoline and Urea Derivatives for Combating Animal Pests” (BASF SE, priority 2007, published 2010).

What was measured:
[1] = test system: Cotton Aphid (Aphis gossypii); test: whole plant or invertebrate; type: in vivo; settings: 120 h
Text: • 2. Biological Examples II.1 Cotton Aphid (Aphis gossypii), Mixed Life Stages
The active compounds were formulated in 50:50 acetone: water and 100 ppm Kinetic® surfactant.
Cotton plants at the cotyledon stage (one plant per pot) were infested by placing a heavily infested leaf from the main colony on top of each cotyledon. The aphids were allowed to transfer to the host plant overnight, and the leaf used to transfer the aphids was removed. The cotyledons were dipped in the test solution and allowed to dry. After 5 days, mortality counts were made.

[2] = test system: Silverleaf Whitefly (Bemisia argentifolii); test: whole plant or invertebrate; type: in vivo; settings: in Gossypium hirsutum, 72 h, 3 days after treatment, in comparison with untreated controls
Description: II.4 Silverleaf Whitefly (Bemisia argentifolii), Adult
The active compounds were formulated in 50:50 acetone:water and 100 ppm Kinetic® surfactant.
Selected cotton plants were grown to the cotyledon state (one plant per pot). The cotyledons were dipped into the test solution to provide complete coverage of the foliage and placed in a well-vented area to dry. Each pot with treated seedling was placed in a plastic cup and 10 to 12 whitefly adults (approximately 3-5 day old) were introduced. The insects were collected using an aspirator and an 0.6 cm, non-toxic Tygon® tubing (R-3603) connected to a barrier pipette tip. The tip, containing the collected insects, was then gently inserted into the soil containing the treated plant, allowing insects to crawl out of the tip to reach the foliage for feeding. The cups were covered with a reusable screened lid (150 micron mesh polyester screen PeCap from Tetko Inc). Test plants were maintained in the holding room at about 25° C. and 20-40% relative humidity for 3 days avoiding direct exposure to the fluorescent light (24 hour photoperiod) to prevent trapping of heat inside the cup. Mortality was assessed 3 days after treatment of the plants.

[3] = test system: Brown Planthopper (Nilaparvata lugens); test: whole plant or invertebrate; type: in vivo; settings: in Oryza sativa, assessed 24, 48 and 72 hours after treatment, in comparison with untreated controls
Description: II.5 Brown Planthopper (Nilaparvata lugens)
The active compounds were formulated as a 20:80 acetone:water solution. Surfactant (Alkamuls EL 620) was added at the rate of 0.1% (vol/vol).
Potted rice plants of 3-4 weeks of age are sprayed with 10 ml of the test solution using air driven hand atomizer (Devillbis atomizer) at 1.7 bar. The treated plants are allowed to dry for about 1 hour and covered with Mylar cages. The plants are inoculated with 10 adults of the specie (5 male and 5 females) and kept at 25-27° C. and 50-60% humidity for 3 days. Mortality is assed after 24, 48 and 72 hours after treatment. Dead insects are usually found in the water surface. Each treatment is replicated once.

[4] = test system: Mediterranean fruitfly (Ceratitis capitata); settings: eggs treated with 2500 ppm; 6 days
Description: II.9 Activity against Mediterranean fruitfly (Ceratitis capitata)
50 to 80 eggs were placed into microtiterplates filled with 0.5% agar-agar and 14% diet in water. The eggs were sprayed with 5 μl of the test solution, the plates were sealed with pierced foils and kept at 27-29° C. and 75-85% humidity under fluorescent light for 6 days. Mortality was assessed on the basis of the agility of the hatched larvae. Tests were replicated 2 times.

## Clc1cccc2c1CC(NC1=NCCS1)CC2 (centres unmarked) [compound 2a, (8-Chloro-1,2,3,4-tetrahydro-naphthalen-2-yl)-(4,5-dihydro-thiazol-2-yl)-amine]
[1]
  mortality at 300 ppm: ≥ 50%

## COc1ccc2c(c1)CC(NC(=S)NCCOC(=O)c1ccccc1)CC2 (centres unmarked) [compound 16, Benzoic acid 2-[3-(7-methoxy-1,2,3,4-tetrahydro-naphthalen-2-yl)-thioureido]-ethyl ester]
[2]
  mortality at 300 ppm: ≥ 50%

## COc1ccc2c(c1)CC(NC(=S)NCCOC(C)=O)CC2 (centres unmarked) [compound 17, Acetic acid 2-[3-(7-methoxy-1,2,3,4-tetrahydro-naphthalen-2-yl)-thioureido]-ethyl ester]
[2]
  mortality at 300 ppm: ≥ 50%
[3]
  mortality at 300 ppm: ≥ 50%

## COc1ccc2c(c1)CC(NC(=S)NCCO)CC2 (centres unmarked) [compound 18]
[4]
  mortality: at least 50%
